Biological target: T1, AKT1 (Homo sapiens, UniProt P31749)
T1 construct: purchased Upstate 14-276
Assay: HTS ATP-utilizing enzyme assay, off-chip mobility-shift (Caliper HTS 250)
Type: biochemical
Details: kinase named = inhibitory activity/selectivity; test compound 10 μM; active = greater than three-sigma from mean
Summary of the method: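 AKT1 activity was measured by off-chip mobility shift (Caliper HTS 250) as the ratio of peptide substrate to phosphorylated product. Test compound was at 10 μM, with 2.5 h incubation at 20–22° C. EDTA wells served as 100% control and DMSO wells as 0%. Hits were called at three-sigma limits.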

T1 sequence (P31749 whole entry): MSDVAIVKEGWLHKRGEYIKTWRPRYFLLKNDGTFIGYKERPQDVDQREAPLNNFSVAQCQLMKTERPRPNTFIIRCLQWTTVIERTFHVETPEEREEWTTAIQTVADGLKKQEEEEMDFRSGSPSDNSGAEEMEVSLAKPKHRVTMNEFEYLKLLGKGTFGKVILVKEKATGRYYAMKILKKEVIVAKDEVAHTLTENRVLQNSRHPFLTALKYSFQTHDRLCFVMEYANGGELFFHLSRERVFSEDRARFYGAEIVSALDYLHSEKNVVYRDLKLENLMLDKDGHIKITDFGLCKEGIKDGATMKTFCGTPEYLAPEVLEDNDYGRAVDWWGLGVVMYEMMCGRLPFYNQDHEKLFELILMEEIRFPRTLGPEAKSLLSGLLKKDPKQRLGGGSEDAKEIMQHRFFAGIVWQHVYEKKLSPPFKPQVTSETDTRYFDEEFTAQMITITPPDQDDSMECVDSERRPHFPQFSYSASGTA

Activity, AKT1:
CCN(CC)CCCN(C(=O)c1ccco1)c1nc(-c2cc(OC)ccc2OC)cs1 [N-(3-(diethylamino)propyl)-N-(4-(2,5-dimethoxyphenyl)thiazol-2-yl)furan-2-carboxamide]
O=C(c1cccs1)N(CCCN1CCC(O)CC1)c1nc(-c2cc3ccccc3o2)cs1 [N-(4-(benzofuran-2-yl)thiazol-2-yl)-N-(3-(4-hydroxypiperidin-1-yl)propyl)thiophene-2-carboxamide]
COc1ccc(-c2csc(N(CCCN3CCOCC3)C(=O)C3=CCCC3)n2)cc1 [N-(4-(4-methoxyphenyl)thiazol-2-yl)-N-(3-morpholinopropyl)cyclopent-1-enecarboxamide]
O=C1CN(C(=O)CCN(C(=O)c2cccs2)c2nc(-c3cc4ccccc4o3)cs2)CCN1 [N-(4-(benzofuran-2-yl)thiazol-2-yl)-N-(3-oxo-3-(3-oxopiperazin-1-yl)propyl)thiophene-2-carboxamide]
CCOC(=O)CC(C)(C)c1csc(N(CCCN2CCOCC2)C(=O)c2cccs2)n1 [ethyl 3-methyl-3-(2-(N-(3-morpholinopropyl)thiophene-2-carboxamido)thiazol-4-yl)butanoate]
COC(=O)C1CCCN1CCCN(C(=O)c1cccs1)c1nc(-c2cc3ccccc3o2)cs1 (stereo not drawn) [methyl 1-(3-(N-(4-(benzofuran-2-yl)thiazol-2-yl)thiophene-2-carboxamido)propyl)pyrrolidine-2-carboxylate]
COc1ccc(OC)c(-c2csc(N(CCCN3CCN(C)CC3)C(=O)c3cccs3)n2)c1 [N-(4-(2,5-dimethoxyphenyl)thiazol-2-yl)-N-(3-(4-methylpiperazin-1-yl)propyl)thiophene-2-carboxamide]
CCOC(=O)CC1CCCN(C(=O)CCCN(C(=O)c2cccs2)c2nc(-c3cc4ccccc4o3)cs2)C1 (stereo not drawn) [ethyl 2-(1-(4-(N-(4-(benzofuran-2-yl)thiazol-2-yl)thiophene-2-carboxamido)butanoyl)piperidin-3-yl)acetate]
O=C(c1cccs1)N(CCCN1CCCC1CO)c1nc(-c2cc3ccccc3o2)cs1 (stereo not drawn) [N-(4-(benzofuran-2-yl)thiazol-2-yl)-N-(3-(2-(hydroxymethyl)pyrrolidin-1-yl)propyl)thiophene-2-carboxamide]
O=C(CCN(C(=O)c1cccs1)c1nc(-c2cc3ccccc3o2)cs1)N1CCOCC1 [N-(4-(benzofuran-2-yl)thiazol-2-yl)-N-(3-morpholino-3-oxopropyl)thiophene-2-carboxamide]
CN(CC(O)CO)C(=O)CCCN(C(=O)c1cccs1)c1nc(-c2cc3ccccc3o2)cs1 (stereo not drawn) [N-(4-(benzofuran-2-yl)thiazol-2-yl)-N-(4-((2,3-dihydroxypropyl)(methyl)amino)-4-oxobutyl)thiophene-2-carboxamide]
O=C(c1cccs1)N(CCCN1CCOCC1)c1nc(-c2cccc(Br)c2)cs1 [N-(4-(3-bromophenyl)thiazol-2-yl)-N-(3-morpholinopropyl)thiophene-2-carboxamide]
O=C(C1CCCO1)N1CCN(CCCN(C(=O)c2cccs2)c2nc(-c3cc4ccccc4o3)cs2)CC1 (stereo not drawn) [N-(4-(benzofuran-2-yl)thiazol-2-yl)-N-(3-(4-(tetrahydrofuran-2-carbonyl)piperazin-1-yl)propyl)thiophene-2-carboxamide]
O=C(O)[C@H]1CCCN1CCCN(C(=O)c1cccs1)c1nc(-c2cc3ccccc3o2)cs1 [(R)-1-(3-(N-(4-(benzofuran-2-yl)thiazol-2-yl)thiophene-2-carboxamido)propyl)pyrrolidine-2-carboxylic acid]
COc1cccc(NC(=O)c2csc(N(CCCN3CCOCC3)C(=O)c3cccs3)n2)c1 [N-(3-methoxyphenyl)-2-(N-(3-morpholinopropyl)thiophene-2-carboxamido)thiazole-4-carboxamide]
CCN(CC)CCCN(C(=O)c1cccs1)c1nc(-c2ccc(OC)c(OC)c2)cs1 [N-(3-(diethylamino)propyl)-N-(4-(3,4-dimethoxyphenyl)thiazol-2-yl)thiophene-2-carboxamide]
CCN(CC)CCCN(C(=O)c1ccco1)c1nc(-c2ccccc2)cs1 [N-(3-(diethylamino)propyl)-N-(4-phenylthiazol-2-yl)furan-2-carboxamide]
CN1CCN(CCCN(C(=O)c2cccs2)c2nc(-c3cc4ccccc4o3)cs2)CC1 [N-(4-(benzofuran-2-yl)thiazol-2-yl)-N-(3-(4-methylpiperazin-1-yl)propyl)thiophene-2-carboxamide]
O=C(NCCCN(C(=O)c1cccs1)c1nc(-c2cc3ccccc3o2)cs1)c1ccncc1 [N-(3-(N-(4-(benzofuran-2-yl)thiazol-2-yl)thiophene-2-carboxamido)propyl)isonicotinamide]
O=C(CCCN(C(=O)c1cccs1)c1nc(-c2cc3ccccc3o2)cs1)N1Cc2ccccc2C1 [N-(4-(benzofuran-2-yl)thiazol-2-yl)-N-(4-(isoindolin-2-yl)-4-oxobutyl)thiophene-2-carboxamide]
COc1ccc(-c2csc(N(CCCN3CCN(C)CC3)C(=O)c3cccs3)n2)cc1OC [N-(4-(3,4-dimethoxyphenyl)thiazol-2-yl)-N-(3-(4-methylpiperazin-1-yl)propyl)thiophene-2-carboxamide]
C[S+]([O-])CCNC(=O)CCCN(C(=O)c1cccs1)c1nc(-c2cc3ccccc3o2)cs1 (stereo not drawn) [N-(4-(benzofuran-2-yl)thiazol-2-yl)-N-(4-(2-(methylsulfinyl)ethylamino)-4-oxobutyl)thiophene-2-carboxamide]
O=C(c1cccs1)N(CCCN1CCOCC1)c1nc(-c2cc3cc([N+](=O)[O-])ccc3o2)cs1 [N-(3-morpholinopropyl)-N-(4-(5-nitrobenzofuran-2-yl)thiazol-2-yl)thiophene-2-carboxamide]
COc1ccccc1-c1csc(N(CCCN2CCOCC2)C(=O)c2cccs2)n1 [N-(4-(2-methoxyphenyl)thiazol-2-yl)-N-(3-morpholinopropyl)thiophene-2-carboxamide]
O=C(O)c1cccc(-c2csc(N(CCCN3CCOCC3)C(=O)c3cccs3)n2)c1 [3-(2-(N-(3-morpholinopropyl)thiophene-2-carboxamido)thiazol-4-yl)benzoic acid]
O=C(c1cccs1)N(CCCN1CCOCC1)c1nc(-c2ccc(N3CCOCC3)cc2)cs1 [N-(4-(4-morpholinophenyl)thiazol-2-yl)-N-(3-morpholinopropyl)thiophene-2-carboxamide]
O=C(c1ccccn1)N(CCCN1CCOCC1)c1nc(-c2cc3ccccc3o2)cs1 [N-(4-(benzofuran-2-yl)thiazol-2-yl)-N-(3-morpholinopropyl)picolinamide]
O=C(c1cccs1)N(CCCN1CCOCC1)c1nc(-c2cccc(F)c2)cs1 [N-(4-(3-fluorophenyl)thiazol-2-yl)-N-(3-morpholinopropyl)thiophene-2-carboxamide]
COc1ccc(-c2csc(N(CCCN3CCCCC3)C(=O)c3cccs3)n2)cc1 [N-(4-(4-methoxyphenyl)thiazol-2-yl)-N-(3-(piperidin-1-yl)propyl)thiophene-2-carboxamide]
COc1ccc(OC)c(-c2csc(N(CCCN3CCCCC3)C(=O)c3ccco3)n2)c1 [N-(4-(2,5-dimethoxyphenyl)thiazol-2-yl)-N-(3-(piperidin-1-yl)propyl)furan-2-carboxamide]
O=C(c1cccs1)N(CCCN1CCCC1)c1nc(-c2ccccc2)cs1 [N-(4-phenylthiazol-2-yl)-N-(3-(pyrrolidin-1-yl)propyl)thiophene-2-carboxamide]
O=C(O)CCOc1cccc(-c2csc(N(CCCN3CCOCC3)C(=O)c3cccs3)n2)c1 [3-(3-(2-(N-(3-morpholinopropyl)thiophene-2-carboxamido)thiazol-4-yl)phenoxy)propanoic acid]
O=C(c1cccs1)N(CCC(=O)N1CCCC1CO)c1nc(-c2cc3ccccc3o2)cs1 (stereo not drawn) [N-(4-(benzofuran-2-yl)thiazol-2-yl)-N-(3-(2-(hydroxymethyl)pyrrolidin-1-yl)-3-oxopropyl)thiophene-2-carboxamide]
O=C(c1cccs1)N(CCCN1CCCCC1CO)c1nc(-c2cc3ccccc3o2)cs1 (stereo not drawn) [N-(4-(benzofuran-2-yl)thiazol-2-yl)-N-(3-(2-(hydroxymethyl)piperidin-1-yl)propyl)thiophene-2-carboxamide]
Cc1ccc(-c2csc(N(CCCN3CCOCC3)C(=O)c3cccs3)n2)s1 [N-(4-(5-methylthiophen-2-yl)thiazol-2-yl)-N-(3-morpholinopropyl)thiophene-2-carboxamide]
O=C(c1cccs1)N(CCCN1CCC(N2CCOCC2)CC1)c1nc(-c2cc3ccccc3o2)cs1 [N-(4-(benzofuran-2-yl)thiazol-2-yl)-N-(3-(4-morpholinopiperidin-1-yl)propyl)thiophene-2-carboxamide]

Reference: US7795290B2 (Genentech, Inc., priority 2004, dated 2010)
